Data from publication PMC8218751, “Visualizing Borrelia burgdorferi Infection Using a Small-Molecule Imaging Probe” (Journal of Clinical Microbiology, 2021).

Assays:
E. coli HtpG = molecular target: T1, E. coli HtpG (Escherichia coli, UniProt P0A6Z3); assay: biochemical; type: binding
T1 construct: His6 (N); made in house; host or cells: E. coli BL21(DE3)
Description: (§1) Escherichia coli (strain BL21/DE3) genomic DNA was isolated from a lab culture generated from the cloning/expression bacterium (ThermoFisher catalog no. EC0114) by overnight proteinase K digestion at 56°C, high-salt clarification, and ethanol precipitation. […] Human Hsp90-alpha sequences were derived from cDNA generated from total mRNA of the human breast epithelial line, MCF10A. HtpG DNA sequences were PCR cloned from these DNAs using primers designed to allow in-frame cloning with GFP in the isopropyl-β-D-thiogalactopyranoside (IPTG)-inducible bacterial expression vector. […] Fusion protein cloning was done using the ligation-independent cloning procedure via single-nucleotide T4 DNA polymerase treatment of vector and purified PCR products followed by annealing of complementary single-strand ends before transformation into DH5 E. coli. […] Fusion protein synthesis was induced by incubation with 1 mM IPTG or autoinduction ([17]).
(§2) γ-linked ATP Sepharose matrix was generated as described previously by the Haystead lab ([18]). […] The clarified lysate was added to a column containing ATP-bound Sepharose. The column was washed with low-salt buffer (150 mM NaCl, 25 mM HEPES, pH 7.4, 1 mM dithiothreitol [DTT], and 60 mM MgCl2), followed by high-salt buffer (1 M NaCl, 25 mM HEPES, pH 7.4, 1 mM DTT, 0.1% IGEPAL, and 60 mM MgCl2) and once again low-salt buffer to remove unbound protein. Next, the resin with bound proteins (50 μl) was transferred to a 0.2-μm polyvinylidene fluoride filter 96-well plate (Corning) sitting on top of a black flat-bottomed 96-well catch plate (Corning). […] The eluted proteins were measured in a fluorescent plate reader to detect the GFP.
(§3) Subtle single amino acid differences are present within the catalytic clefts of these proteins, especially between residues that contact the nucleotide. […] We therefore reasoned that these differences may be sufficient to design small molecules that can similarly discriminate HtpG of stealth organisms. To test this hypothesis, we utilized a fluorescent-linked enzyme chemoproteomic strategy (FLECS) assay to test known Hsp90 inhibitors ([18]) for binding to various HtpG constructs. First, we cloned and expressed in E. coli recombinant N-terminal GFP-fusion forms of HtpG from B. burgdorferi, E. coli, and Treponema denticola, the oral spirochete, as well as human Hsp90. We then incubated lysate after protein expression with an ATP Sepharose resin to enable binding. In this assay, ATP is tethered to Sepharose beads via its γ-phosphate, enabling the nucleotide to bind to ATP binding proteins such as Hsp90 and HtpG, but is nonhydrolyzable ([24]). After proteins are bound to the ATP Sepharose resin, small molecules with affinity for the ATP binding site will elute the GFP-fusion protein, which can readily be detected and quantified on a plate fluorometer.
(§4) These compounds were selected for testing based on their known binding to human Hsp90 ([25], [26]).

B. burgdorferi HtpG = molecular target: T2, B. burgdorferi HtpG (Borreliella burgdorferi, UniProt P42555); assay: biochemical; type: binding, Borrelia burgdorferi
T2 construct: His6 (N); made in house; host or cells: E. coli BL21(DE3)
T2 sequence (P42555 whole entry): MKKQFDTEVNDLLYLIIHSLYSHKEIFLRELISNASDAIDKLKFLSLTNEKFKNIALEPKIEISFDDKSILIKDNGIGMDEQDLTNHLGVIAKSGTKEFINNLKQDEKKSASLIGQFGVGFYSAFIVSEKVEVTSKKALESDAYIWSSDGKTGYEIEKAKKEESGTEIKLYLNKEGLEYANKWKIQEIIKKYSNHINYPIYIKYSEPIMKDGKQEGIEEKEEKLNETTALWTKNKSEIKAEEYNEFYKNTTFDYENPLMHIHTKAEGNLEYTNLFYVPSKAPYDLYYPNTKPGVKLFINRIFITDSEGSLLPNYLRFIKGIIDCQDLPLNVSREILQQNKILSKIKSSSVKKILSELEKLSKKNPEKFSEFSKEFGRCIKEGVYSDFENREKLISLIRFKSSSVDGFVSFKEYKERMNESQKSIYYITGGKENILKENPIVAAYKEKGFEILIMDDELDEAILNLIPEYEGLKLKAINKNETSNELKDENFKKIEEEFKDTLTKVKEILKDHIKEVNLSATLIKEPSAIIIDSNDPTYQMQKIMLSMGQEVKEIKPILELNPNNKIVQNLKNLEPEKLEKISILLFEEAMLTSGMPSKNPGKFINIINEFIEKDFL
Description: as §1, §2, §3, §4

B. burgdorferi [1] = assay: B. burgdorferi live bacterial imaging; type: cell-based, Borrelia burgdorferi
Description: B. burgdorferi strain B31 was obtained from ATCC (ATCC catalog number ATCC-35210). Cultures were grown in Barbour-Stoenner-Kelly medium (BSK-II) created using the Barbour protocol ([19]) without gelatin and supplemented with 6 % rabbit serum (Pel-Freez catalog number 31128-5) at 34°C. Low-passage-number cultures (less than 4) were utilized. Later-stage morphological variants were obtained by increasing culture time to approximately 8 days to achieve a density of ∼10^8/ml counted under dark-field microscopy.
[…] germ agglutinin (WGA) conjugated with Alexa 488 at 10 μg per ml (Biotium catalog number 29022), and cells were then washed with fresh medium and mounted with Prolong Gold with 4′,6-diamidino-2-phenylindole (DAPI). Samples were imaged on a Zeiss Axio Imager upright microscope, using 63× oil objective, and visible light for differential […] contrast (DIC) imaging and excitation at 405, 488, or 633 nm for detection of DAPI, fluorescein isothiocyanate (FITC), or HS-198, respectively.

B. burgdorferi [2] = assay: In vivo mouse model of B. burgdorferi infection, imaging of tissue sections; parameters: species or system mice; conditions: 25 nmol via tail vein, 3 weeks after infection, 6 h postinjection; ear, tibiotarsal joint, spleen
Description: Ten-micrometer sections of frozen tissues were incubated with WGA (Biotium catalog number 29077) for 1 h in PBS. Tissues were washed and fixed with 3:1 methanol to acetic acid. Slides were incubated with FITC-conjugated B. burgdorferi polyclonal antibody (ThermoFisher, catalog number PA1-73005) for 1 h at room temperature. Noninjected or infected tissues were washed and incubated with 1 μM HS-198 for 30 min as control, and injected tissues were not incubated with HS-198. Slides were washed and mounted with DAPI Prolong Gold. Image studies were performed on a Zeiss Axio Imager upright microscope, using 63× oil objective, and visible light for DIC imaging and excitation at 405, 488, or 633 nm for detection of DAPI, FITC, or HS-198, respectively. Images were analyzed using FIJI software.
Seven C3H/HeN (Charles River Laboratories) female mice, 36 to 42 days old, were anesthetized with isoflurane gas, 1.5 to 2%. Mice were infected with 500,000 logarithmic-stage B. burgdorferi strain N40 spirochetes in <0.5 ml sterile saline by subcutaneous injection in the nape of the neck via 25-gauge needle. The N40 strain was selected for its infection kinetics and inflammatory pathology. The strain was obtained from an archival stock acquired by the Philip lab and was maintained exactly like strain B31 ([21]). […]

human Hsp90 = human Hsp90 (Homo sapiens, UniProt P07900); assay: FLECS assay, elution of GFP-Hsp90 from ATP Sepharose; type: binding; parameters: His6 (N); made in house; host or cells: E. coli BL21(DE3); conditions: in words
Description: as §1, §2
Subtle single amino acid differences are present within the catalytic clefts of these proteins, especially between residues that contact the nucleotide. […] After proteins are bound to the ATP Sepharose resin, small molecules with affinity for the ATP binding site will elute the GFP-fusion protein, which can readily be detected and quantified on a plate fluorometer. […]

T1 sequence (P0A6Z3 whole entry): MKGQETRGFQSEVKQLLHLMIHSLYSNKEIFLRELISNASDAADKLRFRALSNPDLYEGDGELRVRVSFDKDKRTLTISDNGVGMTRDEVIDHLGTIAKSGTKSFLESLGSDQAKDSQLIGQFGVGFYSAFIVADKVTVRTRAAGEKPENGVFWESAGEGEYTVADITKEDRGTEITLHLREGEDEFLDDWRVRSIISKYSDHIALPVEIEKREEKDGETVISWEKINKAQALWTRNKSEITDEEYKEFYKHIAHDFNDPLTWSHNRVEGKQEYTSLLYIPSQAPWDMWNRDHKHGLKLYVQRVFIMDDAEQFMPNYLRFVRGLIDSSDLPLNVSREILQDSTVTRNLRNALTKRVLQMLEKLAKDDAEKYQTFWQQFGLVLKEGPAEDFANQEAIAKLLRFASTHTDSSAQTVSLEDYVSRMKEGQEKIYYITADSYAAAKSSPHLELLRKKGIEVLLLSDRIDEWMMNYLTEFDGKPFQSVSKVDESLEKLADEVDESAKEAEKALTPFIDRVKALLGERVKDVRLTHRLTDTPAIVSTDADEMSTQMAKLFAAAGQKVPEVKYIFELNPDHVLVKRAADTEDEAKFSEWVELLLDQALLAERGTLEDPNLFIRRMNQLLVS

Cc1nn(-c2ccc(C(=O)N(C)C)c(NCCCOCCOCCOCCOCCOCCCNCc3ccc(C(=C\C=C4/N(CCCCS(=O)(=O)O)c5ccccc5C4(C)C)/C=C/C4=[N+](CCCCS(=O)(=O)[O-])c5ccccc5C4(C)C)cc3)c2)c2c1C(=O)CC(C)(C)C2 [HS-198] was tested, and the Kd (E. coli HtpG) was 5.8 ± 0.6 µM, the “Release of E. coli GFP-HtpG from ATP Sepharose” value (E. coli HtpG; in words) was “released” and the Kd (B. burgdorferi HtpG) was 5.6 ± 3 µM. For the same molecule, the “Elution of B. burgdorferi GFP-HtpG from ATP Sepharose beads” value (B. burgdorferi HtpG; in words) was “selectively eluted the bound fusion protein”, the “Uptake, share of B. burgdorferi spirochetes” value (B. burgdorferi [1]; 10 μM, incubated 1 h) was greater than 90% and the “Accumulation in B. burgdorferi morphological states” value (B. burgdorferi [1]; 10 μM, spirochetes, blebs, aggregates, colocalization with DAPI) was “accumulates in B. burgdorferi in all of its morphological states”. For the same molecule, the “Effect on B. burgdorferi morphology or motility” value (B. burgdorferi [1]; overnight incubation, live B. burgdorferi) was “does not appear to affect”, the “Detection of B. burgdorferi in tissue sections of infected mice” value (B. burgdorferi [2]) was “localization to sites of B. burgdorferi infection in mice” and the “Release of recombinant human GFP-Hsp90α from ATP Sepharose beads” value (human Hsp90) was “did not”.
